Like-named read-outs stand apart in the source and are kept apart here. Some results are limits rather than exact numbers.

One experiment concerns MCF-12A. The experiment in a line: MTT assay, non-tumorigenic breast epithelial cell line. It counts as cell-based, human. The settings on record: Homo sapiens, MCF-12A; MTT, 72 h, non-tumorigenic cells; read-out: IC50 (Mean ± SD), MCF-12A. As to the method: (§1) The synthesized hybrid conjugates 5a–d were evaluated for their antiproliferative activity against the established human bladder cancer cell lines T24 and 5637. Test compounds were dissolved in ultrapure dimethyl sulfoxide (DMSO), diluted in cell culture media, added to cells cultured in 96-well cluster wells, and incubated for 72 h. The concentration of DMSO in culture media was maintained at < 0.05%. As previously reported, the fraction of viable cells in the culture wells was compared to that in cultures with 0.05% DMSO-only using a colorimetric assay, the Methyl Tetrazolium Bromide (MTT) reduction assay. We determined the selectivity index (SI) of the compounds 5a–d against tumor cells by comparing their cytotoxicity to that of a non-tumorigenic breast epithelial cell line, MCF-12A, as well as a non-tumorigenic, immortalized urothelial cell line, UROtsa (Table 1, and Figure 2).
(§2) The antiproliferative activities of various compounds examined in this report were measured using the MTT (3-[4,5-dimethylthiazol-2-yl]-2,5-diphenyl-tetrazolium bromide) reduction assay, as previously described. Briefly, cells were seeded at 2 × 10^3 cells per well in a 96-well plate and cultured overnight. The cells were then treated with different doses (5 µM, 10 µM, 15 µM, 20 µM, 25 µM, 30 µM, 35 µM, 40 µM in DMSO) for 72 h. Viability of the treated cultures was estimated by conversion of MTT to the insoluble formazan after 3h incubation at 37 °C and 5% CO2. The purple-colored formazan crystals were dissolved in DMSO, and absorbance was recorded at wavelengths 570/640 nm using the Bio-Rad Benchmark Plus Microplate Reader. The percent of viable cells was calculated ODtreated cells/ODcontrol cell wells × 100.
(Tetrazolium assays rely on reduction of a dye to a coloured formazan, in cell work by metabolically active cells.)

The subject of the next experiment is T24 cells. The experiment in a line: MTT antiproliferative assay. It counts as cell-based, human. The settings on record: for IC50: Homo sapiens, T-24, MTT, 72 h, read-out: IC50 (Mean ± SD), T24; for SI (selectivity index), T24: IC50 MCF-12A / IC50 T24. As to the method: as §1, §2
For experiment [1], the system named is 5637 cells. The experiment in a line: MTT antiproliferative assay. It counts as cell-based, human. The settings on record: for IC50: 72 h, MTT, read-out: IC50 (Mean ± SD), 5637. As to the method:
as §1, §2

The subject of experiment [2] is human bladder cancer cell lines T24 and 5637. The experiment can be described thus: MTT antiproliferative activity, result in words. It counts as cell-based. The settings on record: 72 h. As to the method: as §1
The antiproliferative activities of various compounds examined in this report were measured using the MTT (3-[4,5-dimethylthiazol-2-yl]-2,5-diphenyl-tetrazolium bromide) reduction assay, as previously described. […] The purple-colored formazan crystals were dissolved in DMSO, and absorbance was recorded at wavelengths 570/640 nm using the Bio-Rad Benchmark Plus Microplate Reader. The percent of viable cells was calculated ODtreated cells/ODcontrol cell wells × 100.

The next experiment relates to MB49 cells. The experiment can be described thus: Annexin V-FITC/PI apoptosis flow cytometry. It counts as cell-based, murine. The settings on record: Mus musculus, MB49, 24 h, read-out: Q4-3 (Q3, viable) cells. As to the method: (§3) The potential of cells treated with UA or 5c to undergo dose-dependent apoptosis was explored using quantitative flow cytometric analysis, as shown in Figure 4. Utilizing a kit that detects quantitative binding of Annexin V to externalized phosphatidyl serine during the apoptosis cascade and permeability of Propidium iodide (PI) in cells undergoing cell death, we determined the cells at various stages of cell death following 24h incubation with UA and 5c in various bladder cancer cells.
(§4) We used a fluorescence-based Annexin V binding assay to determine the fraction of the cell population undergoing early and late apoptosis due to the cytotoxicity of the drugs. Cells plated in a 60 mm dish overnight at 0.3 × 10^6 cells/well were incubated with the selected drug at several doses for 24 h. Subsequently, treated cells were labeled with FITC-Annexin V using a kit (eBioscience™ Annexin V Apoptosis Detection Kits; Invitrogen # 88-8005-72, Thermo Fisher Scientific, Seoul, Korea) as per the manufacturer’s instructions. Intact cell suspension labeled with FITC-Annexin V and PI was run on the NovoCyte Quanteon flow cytometer, and data were acquired in list mode. Acquired data were analyzed using NovoExpress software (version 1.6.1). Cells treated with Staurosporine (0.2 µM) act as a positive control.

The subject of experiment [3] is 5637 cells. The experiment can be described thus: Annexin V-FITC/PI apoptosis flow cytometry. It counts as cell-based. The settings on record: Homo sapiens, 24 h, read-out: Q3-3 (Q3, viable) cells. As to the method:
as §3, §4
On the technique in general: A flow cytometer gives signals particle by particle.

Usually IC50 stands for the point on the concentration scale where inhibition reaches its midpoint. For the compound `CC1CCC2(C(=O)OCCOC(=O)CCCCC3SCC4NC(=O)NC43)CCC3(C)C(=CCC4C5(C)CCC(O)C(C)(C)C5CCC43C)C2C1C` [Compound 5a, 2-((5-((3aS,4S,6aR)-2-Oxohexahydro-1H-thieno [3,4-d]imidazol-4-yl)pentanoyl)oxy) ethyl 3-hydroxy-urs-12-en-28-oate], the concentration for half-maximal inhibition (IC50) in the experiment on MCF-12A worked out at 626 ± 34.7 µM; in the experiment with T24 cells it was 14.6 ± 4.97 µM; in the experiment with 5637 cells [1] (Homo sapiens), 39.3 ± 21.2 µM. In the experiment with T24 cells, the “SI (selectivity index), T24” value is reported as 42.96. Besides, in the experiment on 5637 cells [1] (IC50 MCF-12A / IC50 5637), the “SI (selectivity index), 5637” value was found to be 15.92.
For `CC1CCC2(C(=O)OCCCOC(=O)CCCCC3SCC4NC(=O)NC43)CCC3(C)C(=CCC4C5(C)CCC(O)C(C)(C)C5CCC43C)C2C1C` [Compound 5b, 3-((5-((3aS,4S,6aR)-2-Oxohexahydro-1H-thieno [3,4-d]imidazol-4-yl)pentanoyl)oxy) propyl 3-hydroxy-urs-12-en-28-oate], the IC50 was 73.33 ± 0.12 µM with MCF-12A, 108 ± 24.4 µM in the experiment with T24 cells, no less than 10000 µM in the experiment with 5637 cells [1] (Homo sapiens) and greater than 10000 µM in the experiment on 5637 cells [1]. The “SI (selectivity index), T24” value with T24 cells is on record as 0.68. The “antiproliferative activity” value in experiment [2] is “ineffective”.
For the compound `CC1CCC2(C(=O)OCCCCCCOC(=O)CCCCC3SCC4NC(=O)NC43)CCC3(C)C(=CCC4C5(C)CCC(O)C(C)(C)C5CCC43C)C2C1C` [Compound 5d, 6-((5-((3aS,4S,6aR)-2-Oxohexahydro-1H-thieno [3,4-d]imidazol-4-yl)pentanoyl)oxy) hexyl 3-hydroxy-urs-12-en-28-oate], the IC50 in the experiment on MCF-12A is 3820 µM; in the experiment on T24 cells, 582 µM; in the experiment with 5637 cells [1] (Homo sapiens), greater than 10000 µM. The “SI (selectivity index), T24” value in the experiment on T24 cells is 6.57. In addition, the “antiproliferative activity” value in experiment [2] is “largely inactive”.
`CN[C@@H]1C[C@H]2O[C@@](C)([C@@H]1OC)n1c3ccccc3c3c4c(c5c6ccccc6n2c5c31)C(=O)NC4` [Stauro., Staurosporine]: the viability at 0.2 µM in the experiment on MB49 cells is 12.3%; in the experiment on 5637 cells [3], 25.3%.

The record behind these values is paper PMC12692861, “Biotin-Linked Ursolic Acid Conjugates as Selective Anticancer Agents and Target-Identification Tools for Cancer Therapy” (Molecules, 2025).
